{"source": "paper PMC11626952", "about": "“Preclinical evaluation of radiolabeled tissue factor-targeted peptide for theranostics of hepatocellular carcinoma post percutaneous ethanol injection” (Theranostics, 2024)", "key": {"tissue factor (TF) [1]": {"target": "T1, tissue factor (TF) (Mus musculus, UniProt P20352)", "T1 construct": "Hepa1-6 tumor-bearing mice received an intravenous injection of 100 μL of Al^18F-NOTA-tTF (2.96 MBq); from tissue; host or cells: subcutaneous Hepa1-6 tumours in male C57BL/6 mice", "T1 sequence (P20352 29-294)": "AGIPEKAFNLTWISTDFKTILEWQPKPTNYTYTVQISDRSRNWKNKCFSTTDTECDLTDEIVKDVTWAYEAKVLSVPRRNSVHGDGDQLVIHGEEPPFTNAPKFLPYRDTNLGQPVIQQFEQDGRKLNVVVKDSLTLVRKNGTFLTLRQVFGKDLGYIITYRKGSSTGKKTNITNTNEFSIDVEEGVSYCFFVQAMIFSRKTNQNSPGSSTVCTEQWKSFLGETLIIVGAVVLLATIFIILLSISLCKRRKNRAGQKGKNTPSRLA", "assay": "Al18F-NOTA-tTF PET/CT imaging in Hepa1-6 tumor-bearing mice", "type": "in vivo", "conditions": "for tumor uptake SUVmax, PEI group: n = 8", "procedure": "[…] Al^18F-NOTA-tTF PET/CT imaging was conducted on days 1 and 6 post-PEI. Hepa1-6 tumor-bearing mice received an intravenous injection of 100 μL of Al^18F-NOTA-tTF (2.96 MBq). Tumor volume and mouse body weight were monitored every 2 to 3 days. Biodistribution studies were performed on days 1 and 6 post-PEI, with mice divided into PEI and NC groups. Al^18F-NOTA-tTF (1.2 MBq) was administered via tail vein injection, and biodistribution results were expressed as the percentage of injected dose per gram (%ID/g).\nTumor-bearing mice were randomly divided into the HD-PEI treatment (HD-PEI, n = 8), LD-PEI treatment (LD-PEI, n = 8), and negative control (NC, n = 8) groups. Al^18F-NOTA-tTF PET/CT imaging was conducted on days 1, 5, and 12 post-PEI.^ 18F-FDG PET/CT imaging was conducted on days 2, 6, and 13 post-PEI. Hepa1-6 tumor-bearing mice received intravenous injections of 100 μL of Al^18F-NOTA-tTF (2.96 MBq) and^ 18F-FDG (2.96 MBq). Tumor volume and mouse body weight were monitored every 2 days. […]\nincreased to 95 °C, and maintained for 15 min. The crude product was purified using a C18 Sep-Pak cartridge and sterilized for subsequent applications. Radiolabeling efficiency was assessed using radio-thin-layer chromatography with citrate solvent (0.1 M, pH 4.0) as the mobile phase. […]\n(§1) Al18F-NOTA-tTF PET/CT imaging in mice bearing Hepa1-6 xenografts\n(§2) Al18F-NOTA-tTF PET/CT imaging of Hepa1-6 tumor-bearing mice were intravenously injected with 100 μL of Al18F-NOTA-tTF (2.96 MBq). In the blocking experiments, unlabeled excess precursors (0.2 mg) were co-injected with Al18F-NOTA-tTF into Hepa1-6 mice (n = 3).\nOne hour after Al18F-NOTA-tTF injection, the mice were anesthetized and placed in the prone […]\nposition on the scanning bed. The PET/CT imaging was acquired with a PET/CT scanner (uBio-EXPLORER, United Imaging, China). PET images were collected for 10 min and reconstructed to get more high-resolution images using an ordered subsets expectation maximization (OSEM) algorithm (4 OSEM iterations, resolution: 1.4 mmHD) with scatter, attenuation, and decay corrections applied. Regions of interest (ROIs) were drawn on the CT images and further mapped on PET. The SUVmax of the tumor and muscle were calculated and referred to as the tumor-to- […]\nPEI treatment and efficacy monitoring\nIn this study, we established a model of incomplete ablation of hepatocellular carcinoma using percutaneous ethanol injection (PEI). Once the tumor volume reached approximately 100 mm3, all mice were randomly assigned to treatment, sham treatment, and negative control groups.\nDuring the PEI procedure, an insulin needle was inserted along the long diameter of the tumor, with needle depth set at1/2 to 2/3 of the tumor diameter. Ethanol was injected at a rate of 25 μL every half minute, and the needle was slowly withdrawn after 5 minutes of injection. Ethanol leakage from the tumor was assessed using CT scans immediately following PEI treatment, defined as day 0. Subsequently, 18F-FDG PET/CT imaging was performed on day 1 post-PEI to evaluate therapeutic efficacy. Tumor volume and mouse body weight were monitored every 2 to 3 days. Tumor volume was calculated using the formula volume = (length × width^2)/2.\nRadioligand therapy study\nMice were randomly assigned to five groups: PEI (group 1, n = 10), PEI + 0.45 mCi 177Lu-DOTA-tTF (group 2, n = 10), PEI + 0.75 mCi 177Lu-DOTA-tTF (group 3, n = 8), 0.45 mCi 177Lu-DOTA-tTF (group 4, n = 10), and saline (group 5, n = 10). During radiotherapy, one mouse died in […]"}, "[2]": {"type": "physicochemical", "excerpt": "(§3) instant thin layer chromatography. The stability of Al18F-NOTA-tTF in PBS (C) and FBS (D) via\n(§4) instant thin layer chromatography. The stability of 68Ga-DOTA-tTF in PBS (E) and FBS (F) via\n(§5) instant thin layer chromatography.\n(§6) FBS: fetal bovine serum; PBS: phosphate-buffered saline."}, "[3]": {"design": "species or system Kunming mice", "conditions": "mouse, in vivo", "procedure": "increased to 95 °C, and maintained for 15 min. The crude product was purified using a C18 Sep-Pak cartridge and sterilized for subsequent applications. Radiolabeling efficiency was assessed using radio-thin-layer chromatography with citrate solvent (0.1 M, pH 4.0) as the mobile phase.\nSmall animal biodistribution and pharmacokinetics study of Al18F-NOTA-tTF A small animal biodistribution experiment was conducted with female Kunming mice (5 weeks). The mice were divided into six groups with 3-4 mice in each group. Al18F-NOTA-tTF (1.2 MBq) was injected into KM mice via the tail vein and a 1% injected dose of Al18F-NOTA-tTF was prepared for reference. At 5 min,15 min, 30 min, 60 min, 90 min and 120 min post-injection, the KM mice were euthanized and organs of interest were collected, wet-weighed. The uptake in various organs and tissues was determined and expressed in terms of the percentage injected dose per gram (%ID/g, mean ± SD) after quantifying the radioactivity of the samples using an […]\nFor the pharmacokinetic study, each Kunming mouse was intravenously injected with a 3.7 MBq of Al18F-NOTA-tTF. Small amounts of blood were obtained through the orbital vein of the […]\nweighed and measured for radioactivity by the γ-counter. The results are expressed as the percentage injected dose per gram (%ID/g).\nas §1, §2\nOne hour after Al18F-NOTA-tTF injection, the mice were anesthetized and placed in the prone"}, "tissue factor (TF) [4]": {"target": "T1, tissue factor (TF)", "assay": "in vivo", "design": "species or system mice", "conditions": "iv, 1.2 MBq, 1 h", "procedure": "(§7) We randomly divided tumor-bearing mice into the HD-PEI treatment (HD-PEI, n = 8), sham treatment (Sham, n = 8), and negative control groups (NC, n = 6). Al^18F-NOTA-tTF PET/CT imaging was conducted on days 1 and 6 post-PEI. Hepa1-6 tumor-bearing mice received an intravenous injection of 100 μL of Al^18F-NOTA-tTF (2.96 MBq). Tumor volume and mouse body weight were monitored every 2 to 3 days. Biodistribution studies were performed on days 1 and 6 post-PEI, with mice divided into PEI and NC groups. Al^18F-NOTA-tTF (1.2 MBq) was administered via tail vein injection, and biodistribution results were expressed as the percentage of injected dose per gram (%ID/g)."}, "in vivo": {"assay": "in vivo", "design": "species or system mice", "conditions": "mouse, iv, 1.2 MBq, total radioactivity, tumor uptake (biodistribution), PEI group", "procedure": "as §7"}, "[5]": {"type": "in vitro ADME, bovine", "excerpt": "as §3, §4, §5, §6"}, "[6]": {"conditions": "HD/LD-PEI models, day 1 post-PEI"}, "[7]": {"conditions": "HD/LD-PEI models, day 5 post-PEI"}, "[8]": {"conditions": "HD/LD-PEI models, day 12 post-PEI"}, "[9]": {"conditions": "day 1 post-PEI, 60 min post-injection, n = 6"}}, "note": "Where a SMILES comes first, the peptide text is derived from it. Side-chain parts run from the residue outwards. The star is where a group is joined. NOTA = O=C(O)CN1CCN(CC(=O)O)CCN(CC(=O)*)CC1; PEG8 = NCCOCCOCCOCCOCCOCCOCCOCCOCCC(=O)O"}
{"smiles": "CC(C)C[C@H](NC(=O)[C@@H](NC(=O)[C@@H](N)CCCNC(=N)N)[C@@H](C)O)C(=O)N[C@@H](C)C(=O)N[C@@H](Cc1ccccc1)C(=O)N[C@H](C(=O)N[C@@H](CCCNC(=N)N)C(=O)N[C@@H](Cc1ccccc1)C(=O)N[C@@H](CCCCNC(=O)CCOCCOCCOCCOCCOCCOCCOCCOCCNC(=O)CN1CCN(CC(=O)O)CCN(CC(=O)O)CC1)C(=O)O)C(C)C", "note": "[Al^18F-NOTA-tTF] (H-RTLAFVRFK([PEG8-NOTA])-OH)", "values": [{"measurement": "tumor uptake SUVmax, NC group", "setting": "tissue factor (TF) [1]; HD/LD-PEI models, day 1", "value": "0.12 ± 0.04"}, {"measurement": "tumor uptake SUVmax, HD-PEI group", "setting": "tissue factor (TF) [1]; [6]", "value": "0.42 ± 0.17"}, {"measurement": "tumor uptake SUVmax, LD-PEI group", "setting": "tissue factor (TF) [1]; [6]", "value": "0.54 ± 0.23"}, {"measurement": "tumor uptake SUVmax, NC group", "setting": "tissue factor (TF) [1]; HD/LD-PEI models, day 5", "value": "0.16 ± 0.06"}, {"measurement": "tumor uptake SUVmax, HD-PEI group", "setting": "tissue factor (TF) [1]; [7]", "value": "0.33 ± 0.09"}, {"measurement": "tumor uptake SUVmax, LD-PEI group", "setting": "tissue factor (TF) [1]; [7]", "value": "0.30 ± 0.09"}, {"measurement": "tumor SUVmax, HD-PEI group", "setting": "tissue factor (TF) [1]; [8]", "value": "0.25 ± 0.10"}, {"measurement": "tumor SUVmax, LD-PEI group", "setting": "tissue factor (TF) [1]; [8]", "value": "0.31 ± 0.08"}, {"measurement": "tumor uptake SUVmax, blocked", "setting": "tissue factor (TF) [1]; Hepa1-6 tumor-bearing mice, 0.2 mg unlabeled precursor, 60 min post-injection, n = 3", "value": "0.07 ± 0.010"}, {"measurement": "tumor uptake SUVmax, non-blocked", "setting": "tissue factor (TF) [1]; Hepa1-6 tumor-bearing mice, 60 min post-injection, n = 3", "value": "0.13 ± 0.005"}, {"measurement": "tumor uptake SUVmax, NC group", "setting": "tissue factor (TF) [1]; [9]", "value": "0.12 ± 0.03"}, {"measurement": "tumor uptake SUVmax, Sham group", "setting": "tissue factor (TF) [1]; [9]", "value": "0.15 ± 0.04"}, {"measurement": "tumor uptake SUVmax, PEI group", "setting": "tissue factor (TF) [1]; day 1 post-PEI, 60 min post-injection", "value": "0.62 ± 0.14"}, {"measurement": "tumor uptake SUVmax, NC group", "setting": "tissue factor (TF) [1]; day 6 post-PEI, n = 6", "value": "0.11 ± 0.03"}, {"measurement": "tumor uptake SUVmax, Sham group", "setting": "tissue factor (TF) [1]; day 6 post-PEI, n = 6", "value": "0.11 ± 0.01"}, {"measurement": "tumor uptake SUVmax, PEI group", "setting": "tissue factor (TF) [1]; day 6 post-PEI", "value": "0.46 ± 0.23"}, {"measurement": "Vitro stability in PBS", "setting": "[2]", "value": "> 95% (3 h)"}, {"measurement": "renal clearance", "setting": "[3]", "value": "rapid renal clearance"}, {"measurement": "distribution phase half-life (Half-life Fast)", "setting": "[3]; iv", "value": 1.192, "unit": "min"}, {"measurement": "elimination phase half-life (Half-life Slow)", "setting": "[3]; iv", "value": 12.29, "unit": "min"}, {"measurement": "tumor uptake (biodistribution), PEI group", "setting": "tissue factor (TF) [4]", "value": "0.50 ± 0.28", "unit": "%ID/g"}, {"measurement": "tissue uptake at 1 h", "setting": "in vivo", "value": "0.77 ± 0.25", "unit": "%ID/g"}, {"measurement": "Vitro stability in FBS", "setting": "[5]", "value": "> 95% (3 h)"}, {"measurement": "in vitro stability in saline or fetal bovine serum", "setting": "[5]", "value": "remained stable"}]}
